ChEMBL document CHEMBL6083215, “Structure elucidation, absolute configuration, and biological evaluation of cyclic peroxides from the sponge Plakinastrella sp” (2024)

How the values were obtained:
Format in all cases: functional
HT-29 = test: Growth inhibition of human HT-29 cells
UACC-257 = test: Growth inhibition of human UACC-257 cells
CAKI-1 = test: Growth inhibition of human CAKI-1 cells
Malme-3M = test: Growth inhibition of human Malme-3M cells
HCT-116 = test: Growth inhibition of human HCT-116 cells
T47D = test: Growth inhibition of human T47D cells
NCI-H522 = test: Growth inhibition of human NCI-H522 cells
TK-10 = test: Growth inhibition of human TK-10 cells
SK-OV-3 = test: Growth inhibition of human SK-OV-3 cells
SF-268 = test: Growth inhibition of human SF-268 cells
NCI-H226 = test: Growth inhibition of human NCI-H226 cells
OVCAR-8 = test: Growth inhibition of human OVCAR-8 cells
HCT-15 = test: Growth inhibition of human HCT-15 cells
U-251 = test: Growth inhibition of human U-251 cells
SF-539 = test: Growth inhibition of human SF-539 cells
RXF 393 = test: Growth inhibition of human RXF 393 cells
MCF7 = test: Growth inhibition of human MCF7 cells
786-0 = test: Growth inhibition of human 786-0 cells
A549 = test: Growth inhibition of human A549 cells
M14 = test: Growth inhibition of human M14 cells
UO-31 = test: Growth inhibition of human UO-31 cells
A498 = test: Growth inhibition of human A498 cells
RPMI-8226 = test: Growth inhibition of human RPMI-8226 cells
K562 = test: Growth inhibition of human K562 cells
NCI-H322M = test: Growth inhibition of human NCI-H322M cells
MDA-MB-435 = test: Growth inhibition of human MDA-MB-435 cells
Hs-578T = test: Growth inhibition of human HS 578T cells
DU-145 = test: Growth inhibition of human DU-145 cells
SK-MEL-5 = test: Growth inhibition of human SK-MEL-5 cells
SW-620 = test: Growth inhibition of human SW620 cells
OVCAR-3 = test: Growth inhibition of human OVCAR-3 cells
OVCAR-4 = test: Growth inhibition of human OVCAR-4 cells
SF-295 = test: Growth inhibition of human SF-295 cells
SNB-19 = test: Growth inhibition of human SNB-19 cells
SNB-75 = test: Growth inhibition of human SNB-75 cells
CCRF-CEM = test: Growth inhibition of human CCRF-CEM cells
HL-60(TB) = test: Growth inhibition of human HL-60(TB) cells
SK-MEL-28 = test: Growth inhibition of human SK-MEL-28 cells
NCI-H460 = test: Growth inhibition of human NCI-H460 cells
NCI/ADR-RES = test: Growth inhibition of human NCI-ADR-RES cells
MDA-MB-231 = test: Growth inhibition of human MDA-MB-231 cells
HCC 2998 = test: Growth inhibition of human HCC 2998 cells
UACC-62 = test: Growth inhibition of human UACC-62 cells
SR = test: Growth inhibition of human SR cells
SK-MEL-2 = test: Growth inhibition of human SK-MEL-2 cells
NCI-H23 = test: Growth inhibition of human NCI-H23 cells
SN12C = test: Growth inhibition of human SN12C cells
KM12 = test: Growth inhibition of human KM12 cells
HOP-92 = test: Growth inhibition of human HOP-92 cells
HOP-62 = test: Growth inhibition of human HOP-62 cells
ACHN = test: Growth inhibition of human ACHN cells
MDA-MB-468 = test: Growth inhibition of human MDA-MB-468 cells
EKVX = test: Growth inhibition of human EKVX cells
MOLT-4 = test: Growth inhibition of human MOLT-4 cells
LOX IMVI = test: Growth inhibition of human LOX IMVI cells
IGROV-1 = test: Growth inhibition of human IGROV-1 cells
COLO 205 = test: Growth inhibition of human COLO 205 cells
PC-3 = test: Growth inhibition of human PC-3 cells
OVCAR-5 = test: Growth inhibition of human OVCAR-5 cells
BT-549 = test: Growth inhibition of human BT-549 cells

Compound `CCCCCCCC/C=C(/C)C[C@]1(C)C[C@H](C)[C@@H](CC(=O)O)OO1` has a GI50 (HT-29) of 600 nM, a GI50 (UACC-257) of 600 nM and a GI50 (CAKI-1) of 600 nM. For the same compound, the GI50 (Malme-3M) was 600 nM, the GI50 (HCT-116) was 600 nM and the GI50 (T47D) was 600 nM. It also gave a GI50 (NCI-H522) of 600 nM, a GI50 (TK-10) of 600 nM and a GI50 (SK-OV-3) of 600 nM. The GI50 (SF-268) was 600 nM, the GI50 (NCI-H226) was 600 nM and the GI50 (OVCAR-8) was 600 nM. The GI50 (HCT-15) was 600 nM, the GI50 (U-251) was 600 nM and the GI50 (SF-539) was 600 nM. The GI50 (RXF 393) was 600 nM, the GI50 (MCF7) was 600 nM and the GI50 (786-0) was 600 nM. For the same compound, the GI50 (A549) was 600 nM, the GI50 (M14) was 600 nM and the GI50 (UO-31) was 60 nM. For the same compound, the GI50 (A498) was 600 nM, the GI50 (RPMI-8226) was 600 nM and the GI50 (K562) was 600 nM. It also gave a GI50 (NCI-H322M) of 600 nM, a GI50 (MDA-MB-435) of 600 nM and a GI50 (Hs-578T) of 600 nM. It also gave a GI50 (DU-145) of 600 nM, a GI50 (SK-MEL-5) of 600 nM and a GI50 (SW-620) of 600 nM. It also gave a GI50 (OVCAR-3) of 600 nM, a GI50 (OVCAR-4) of 600 nM and a GI50 (SF-295) of 600 nM. For the same compound, the GI50 (SNB-19) was 600 nM, the GI50 (SNB-75) was 600 nM and the GI50 (CCRF-CEM) was 600 nM. For the same compound, the GI50 (HL-60(TB)) was 90 nM, the GI50 (SK-MEL-28) was 600 nM and the GI50 (NCI-H460) was 600 nM. For the same compound, the GI50 (NCI/ADR-RES) was 600 nM, the GI50 (MDA-MB-231) was 600 nM and the GI50 (HCC 2998) was 600 nM. For the same compound, the GI50 (UACC-62) was 600 nM, the GI50 (SR) was 600 nM and the GI50 (SK-MEL-2) was 600 nM. The GI50 (NCI-H23) was 600 nM, the GI50 (SN12C) was 600 nM and the GI50 (KM12) was 600 nM. It also gave a GI50 (HOP-92) of 600 nM, a GI50 (HOP-62) of 600 nM and a GI50 (ACHN) of 600 nM. For the same compound, the GI50 (MDA-MB-468) was 600 nM, the GI50 (EKVX) was 600 nM and the GI50 (MOLT-4) was 600 nM. For the same compound, the GI50 (LOX IMVI) was 10 nM, the GI50 (IGROV-1) was 600 nM and the GI50 (COLO 205) was 600 nM. The GI50 (PC-3) was 600 nM, the GI50 (OVCAR-5) was 600 nM and the GI50 (BT-549) was 600 nM.
